# Data as given in PubChem BioAssay (NCI).
#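 The compound was tested at five concentrations on cells cultured in 96-well plates, with a 48-hour exposure period. Abbreviation: GI50, concentration required for 50% inhibition of growth. Definition used: TGI = concentration required for complete inhibition of growth.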
# Experiments:
# Experiment in all cases: NCI anticancer screen, dose series, 48 h
# [1] = tested on: SNB-19 CNS
# [2] = tested on: ACHN renal
# [3] = tested on: MALME-3M melanoma
# [4] = tested on: COLO 205 colon
# [5] = tested on: MCF7 breast
# [6] = tested on: MOLT-4 leukemia
# [7] = tested on: MDA-MB-435
# [8] = tested on: A498 renal
# [9] = tested on: NCI-H522 lung
# [10] = tested on: NCI-H460 lung
# [11] = tested on: HCT-15 colon
Structure (SMILES),TGI [1] [µM],TGI [2] [µM],TGI [3] [µM],TGI [4] [µM],TGI [5] [µM],TGI [6] [µM],TGI [7] [µM],TGI [8] [µM],TGI [9] [µM],TGI [10] [µM],TGI [11] [µM],GI50 [7] [µM],GI50 [10] [µM]
CCO/C(O)=C(/C(=N)N1CCOCC1)C(=O)Nc1ccc(F)cc1,> 100,> 100,> 100,> 100,> 100,> 100,> 100,> 100,> 100,> 100,> 100,–,–
CN1C(=O)c2ccccc2OC12C=Cc1c(ccc3ccccc13)O2 (stereo not given),> 59.4,10.2,15.6,10.8,> 44.6,17.2,> 24.5,44.9,6.27,42.5,> 25.5,–,–
O=c1[nH]nnc2c1sc1ncccc12,> 100,> 100,> 100,> 100,> 100,> 100,> 100,> 100,> 100,> 100,> 100,–,–
C/C=C/C(CC(O)(C(F)(F)F)C(F)(F)F)=N/NC(N)=S,> 10,> 10,> 10,> 10,> 10,> 10,> 10,> 10,> 10,> 10,> 10,–,–
CC1(C)C(C#N)C1C1=C(N2CCOCC2)[C@]2(C)C(OC(=O)c3ccccc3)CC[C@@H]2C1 (stereo not given in full),> 100,> 100,> 100,> 100,> 100,> 100,> 100,> 100,> 100,> 100,> 100,–,–
Brc1ccc2[nH]cc(-c3csc(-c4c[nH]c5ccccc45)n3)c2c1,9.6,13.2,8.21,7.72,> 100,6.18,15.7,13.8,3.53,12.6,6.54,–,–
Fc1ccc2c(c1)nc1n2C(c2c(Cl)cccc2Cl)SC1 (stereo not given),27.1,30.7,25.6,32.9,32.2,52.5,25,35.4,28.7,20.8,24.4,–,–
COc1cc(OC)c2nc(C)c(CCCl)c(Cl)c2c1,> 100,> 100,> 100,> 100,> 100,> 100,> 100,> 100,> 100,> 100,> 100,–,–
O=C1C=CC(=O)c2c1ccc1c3ccccc3n(CCCCCn3c4ccccc4c4ccc5c(c43)C(=O)C=CC5=O)c21,> 100,28.6,31.9,34.9,43.3,5.11,46.3,> 95.7,4.37,> 100,36.2,–,–
O=C1/C(=C/c2ccc(Br)s2)NC(=S)N1c1ccccc1,> 100,> 100,> 100,> 100,> 100,> 100,> 100,> 100,> 100,> 100,> 100,–,–
CC(C)(C)OC(=O)NC1CCCCC1NC(=O)C(=O)NC1CCCCC1NC(=O)OC(C)(C)C (stereo not given),> 100,> 100,> 100,> 100,> 100,> 100,> 100,79.6,> 100,> 100,> 100,–,–
CCOC(=O)NC(Nc1ccc(C)cc1)(C(F)(F)F)C(F)(F)F,> 100,> 100,> 100,> 100,> 100,> 100,> 100,> 100,> 100,> 100,> 100,–,–
COc1cc(C2c3cc4c(cc3OC(N3CCCCC3)C2C)OCO4)cc(OC)c1O (stereo not given),53.7,23.1,16.8,38.6,> 43,> 91.3,5.92,27.1,22.2,23.3,> 57.1,–,–
CN(C)c1ccc(/C=c2/c3ccccc3n3c2c2c([n+]3C)CCCC2)cc1,6.68,1.99,0.866,0.168,0.321,1.59,0.717,0.92,0.687,0.758,5.56,–,–
C=CCc1cccc2cc(C(=O)NCc3ccccc3)c(=N)oc12,> 100,> 100,40.4,> 100,> 100,> 100,> 100,86.8,44.2,> 100,> 100,–,–
CC1=NN(c2nc(N)nc(/C(C#N)=C\c3ccc([N+](=O)[O-])s3)n2)C(C)(C)C1,5.97,0.719,3.87,1.61,0.375,0.379,0.405,26.8,0.354,0.553,0.325,–,–
N#C[C@H](c1ccccn1)c1nc2ccccc2nc1Cl,> 100,> 100,> 100,> 100,> 100,> 100,> 100,> 100,> 100,> 100,> 100,–,–
Cc1ccnc2[nH]c(-c3ccc4ccccc4c3)cc(=O)c12,31,13.6,18.6,13.3,3.91,> 100,0.453,4.87,3.42,7.34,10.8,0.204,1.05
